Measurements taken from ChEMBL document CHEMBL5528017, “Design and synthesis of dual BRD4/Src inhibitors for treatment of triple-negative breast cancer” (Eur J Med Chem, 2024).
pIC50: −log10 of the molar value. Calls of active or inactive are those of the source. The rule behind the calls is not given here.

What was measured:
[1] = target: Bromodomain-containing protein 4 (Homo sapiens, UniProt O60885); test: Inhibition of His6-tagged recombinant BRD4 BD1 domain (44 to 168 residues) (unknown origin) expressed in Escherichia coli BL21(DE3) incubated for 0.5 hrs by FITC-labeled JQ1 based competitive fluorescence polarization assay
[2] = system: MDA-MB-231; test: cells; details: Homo sapiens, MDA-MB-231, 72 h
Description: Antiproliferative activity against human MDA-MB-231 cells assessed as inhibition of cell viability incubated for 72 hrs by CCK8 assay

[3] = system: MDA-MB-231; test: Induction of cell cycle arrest in human MDA-MB-231 cells assessed as proportion of cells at G1 phase at 0.1 uM incubated for 24 hrs by propidium iodide staining based flow cytometry (reference value: 59.5%); assay type: functional
[4] = system: MDA-MB-231; test: Induction of cell cycle arrest in human MDA-MB-231 cells assessed as proportion of cells at S phase at 0.1 uM incubated for 24 hrs by propidium iodide staining based flow cytometry (reference value: 28.2%); assay type: functional
[5] = system: MDA-MB-231; test: Induction of cell cycle arrest in human MDA-MB-231 cells assessed as proportion of cells at G2 phase at 0.1 uM incubated for 24 hrs by propidium iodide staining based flow cytometry (reference value: 11.6%); assay type: functional
[6] = system: MDA-MB-231; test: Induction of cell cycle arrest in human MDA-MB-231 cells assessed as downregulation of cyclin B1 expression at 0.1 uM incubated for 24 hrs by western blot analysis; assay type: functional, cell-based
[7] = system: MDA-MB-231; test: Induction of cell cycle arrest in human MDA-MB-231 cells assessed as increase in p21 expression at 0.1 uM incubated for 24 hrs by western blot analysis; assay type: functional, cell-based
[8] = system: MDA-MB-231; test: Induction of cell cycle arrest in human MDA-MB-231 cells assessed as […] in cyclin D1 expression at 0.1 uM incubated for 24 hrs by western blot analysis; assay type: functional, cell-based
[9] = system: MDA-MB-231; test: Induction of apoptosis in human MDA-MB-231 cells assessed as proportion of viable cells at 0.5 uM incubated for 36 hrs by AnnexinV-FITC/PI staining based flow cytometry (reference value: 93.6%); assay type: functional
[10] = system: MDA-MB-231; test: Induction of apoptosis in human MDA-MB-231 cells assessed as proportion of early apoptotic cells at 0.5 uM incubated for 36 hrs by AnnexinV-FITC/PI staining based flow cytometry (reference value: 5.05%); assay type: functional
[11] = system: MDA-MB-231; test: Induction of apoptosis in human MDA-MB-231 cells assessed as proportion of late apoptotic cells at 0.5 uM incubated for 36 hrs by AnnexinV-FITC/PI staining based flow cytometry (reference value: […]%); assay type: functional
[12] = system: MDA-MB-231; test: Induction of apoptosis in human MDA-MB-231 cells assessed as proportion of necrotic cells at 0.5 uM incubated for 36 hrs by AnnexinV-FITC/PI staining based flow cytometry (reference value: 0%); assay type: functional
[13] = system: MDA-MB-231; test: Inhibition of cell migration in human MDA-MB-231 cells at 0.05 uM incubated for 12 hrs by wound healing assay; assay type: functional, cell-based
[14] = system: MDA-MB-231; test: Inhibition of cell invasion in human MDA-MB-231 cells assessed as decrease in number of invading cells at 0.1 uM incubated for 16 hrs by matrigel coated transwell assay; assay type: functional, cell-based
[15] = system: MDA-MB-231; test: Antitumor activity against human MDA-MB-231 cells xenografted in NOD-SCID mouse assessed as inhibition of tumor growth at 30 mg/kg, ip administered 5 days per week for 27 days; assay type: functional; details: time 27 day
[16] = system: MCF7; test: Antiproliferative activity against human MCF7 cells assessed as inhibition of cell viability incubated for 3 to 4 days by CCK8 assay; assay type: functional, cell-based; details: time 3-4 day
[17] = system: A549; test: Antiproliferative activity against human A549 cells assessed as inhibition of cell viability incubated for 3 to 4 days by CCK8 assay; assay type: functional, cell-based; details: time 3-4 day
[18] = system: CWR22R; test: Antiproliferative activity against human 22Rv1 cells assessed as inhibition of cell viability incubated for 3 to 4 days by CCK8 assay; assay type: functional, cell-based; details: time 3-4 day
[19] = system: MDA-MB-231; test: Induction of cell cycle arrest in human MDA-MB-231 cells assessed as decrease in cyclin D1 expression at 0.1 uM incubated for 24 hrs by western blot analysis; assay type: functional, cell-based
[20] = system: MDA-MB-231; test: Antitumor activity against human MDA-MB-231 cells xenografted in NOD-SCID mouse assessed as inhibition of tumor growth at 30 mg/kg, po administered 5 days per week for 27 days; assay type: functional; details: MDA-MB-231, 648 h, time 27 day, read-out: TGI

Cc1nc(Nc2ncc(C(=O)Nc3c(C)cccc3Cl)s2)cc(N2CCN(C(=O)[C@@H]3CCCCN3C(=O)C[C@@H]3N=C(c4ccc(Cl)cc4)c4c(sc(C)c4C)-n4c(C)nnc43)CC2)n1
pIC50 [1]: < 6.00 | pIC50 [2]: 5.30

Cc1nc(Nc2ncc(C(=O)Nc3c(C)cccc3Cl)s2)cc(N2CCN(CCOC(=O)[C@@H]3CCCCN3C(=O)C[C@@H]3N=C(c4ccc(Cl)cc4)c4c(sc(C)c4C)-n4c(C)nnc43)CC2)n1
pIC50 [1]: < 6.00 | pIC50 [2]: 6.62

Cc1nc(Nc2ncc(C(=O)Nc3c(C)cccc3Cl)s2)cc(N2CCN(C(=O)C[C@@H]3N=Cc4c(sc(C)c4C)-n4c(C)nnc43)CC2)n1
pIC50 [2]: 6.01

Cc1nc(Nc2ncc(C(=O)Nc3c(C)cccc3Cl)s2)cc(N2CCN(CCOC(=O)C[C@@H]3N=C(c4ccc(Cl)cc4)c4c(sc(C)c4C)-n4c(C)nnc43)CC2)n1
pIC50 [2]: 7.28

Cc1sc2c(c1C)C(c1ccc(Cl)cc1)=N[C@@H](CC(=O)OC(C)(C)C)c1nnc(C)n1-2
Activity [3]: 73.3% | Activity [4]: 17.5% | Activity [5]: 8.53% | Activity [6]: Active | Activity [7]: Active | Activity [8]: Active | Activity [9]: 83.8% | Activity [10]: 13.3% | Activity [11]: 2.9% | Activity [12]: 0% | inhibition [13]: Active | inhibition [14]: inactive | TGI [15]: 63.6% | pIC50 [2]: 6.05

CSCC[C@H](NC(=O)C[C@@H]1N=C(c2ccc(Cl)cc2)c2c(sc(C)c2C)-n2c(C)nnc21)C(=O)OCCN1CCN(c2cc(Nc3ncc(C(=O)Nc4c(C)cccc4Cl)s3)nc(C)n2)CC1
pIC50 [2]: 7.24

Cc1nc(Nc2ncc(C(=O)Nc3c(C)cccc3Cl)s2)cc(N2CCN(CCOC(=O)CCCCCNC(=O)C[C@@H]3N=C(c4ccc(Cl)cc4)c4c(sc(C)c4C)-n4c(C)nnc43)CC2)n1
pIC50 [2]: 5.97

Cc1nc(Nc2ncc(C(=O)Nc3c(C)cccc3Cl)s2)cc(N2CCN(CCOC(=O)[C@H](Cc3c[nH]c4ccccc34)NC(=O)C[C@@H]3N=C(c4ccc(Cl)cc4)c4c(sc(C)c4C)-n4c(C)nnc43)CC2)n1
pIC50 [2]: 7.02

Cc1nc(Nc2ncc(C(=O)Nc3c(C)cccc3Cl)s2)cc(N2CCN(CCOC(=O)[C@H](Cc3ccccc3)NC(=O)C[C@@H]3N=C(c4ccc(Cl)cc4)c4c(sc(C)c4C)-n4c(C)nnc43)CC2)n1
pIC50 [2]: 6.71

Cc1nc(Nc2ncc(C(=O)Nc3c(C)cccc3Cl)s2)cc(N2CCN(CCOC(=O)C(NC(=O)C[C@@H]3N=C(c4ccc(Cl)cc4)c4c(sc(C)c4C)-n4c(C)nnc43)C(C)C)CC2)n1 (some centres not stated)
pIC50 [2]: 6.76

Cc1nc(Nc2ncc(C(=O)Nc3c(C)cccc3Cl)s2)cc(N2CCN(CCO)CC2)n1 [DASATINIB ANHYDROUS]
Activity [16]: Active | Activity [17]: Active | Activity [18]: Active | Activity [3]: 74.5% | Activity [4]: 15.8% | Activity [5]: 7.75% | Activity [6]: Active | Activity [7]: Active | Activity [19]: Active | Activity [9]: 80.9% | Activity [10]: 14.6% | Activity [11]: 4.45% | Activity [12]: 0.002% | inhibition [13]: Active | inhibition [14]: Active | inhibition in vivo at 30 mg/kg [20]: 44.7% | pIC50 [2]: 6.80

Cc1nc(Nc2ncc(C(=O)Nc3c(C)cccc3Cl)s2)cc(N2CCN(CCOC(=O)CNC(=O)C[C@@H]3N=C(c4ccc(Cl)cc4)c4c(sc(C)c4C)-n4c(C)nnc43)CC2)n1
pIC50 [2]: 7.66

Cc1nc(Nc2ncc(C(=O)Nc3c(C)cccc3Cl)s2)cc(N2CCN(CCOC(=O)[C@H](CC(C)C)NC(=O)C[C@@H]3N=C(c4ccc(Cl)cc4)c4c(sc(C)c4C)-n4c(C)nnc43)CC2)n1
pIC50 [2]: 6.62

Cc1nc(Nc2ncc(C(=O)Nc3c(C)cccc3Cl)s2)cc(N2CCN(CCOC(=O)[C@H](CC(=O)OC(C)(C)C)NC(=O)C[C@@H]3N=C(c4ccc(Cl)cc4)c4c(sc(C)c4C)-n4c(C)nnc43)CC2)n1
pIC50 [2]: 6.91

Cc1nc(Nc2ncc(C(=O)Nc3c(C)cccc3Cl)s2)cc(N2CCN(C(=O)CCCNC(=O)C[C@@H]3N=C(c4ccc(Cl)cc4)c4c(sc(C)c4C)-n4c(C)nnc43)CC2)n1
pIC50 [2]: 5.88

Cc1nc(Nc2ncc(C(=O)Nc3c(C)cccc3Cl)s2)cc(N2CCN(C(=O)CCCCCCCNC(=O)C[C@@H]3N=C(c4ccc(Cl)cc4)c4c(sc(C)c4C)-n4c(C)nnc43)CC2)n1
pIC50 [2]: 6.12

Cc1nc(Nc2ncc(C(=O)Nc3c(C)cccc3Cl)s2)cc(N2CCN(C(=O)CCCCCNC(=O)C[C@@H]3N=C(c4ccc(Cl)cc4)c4c(sc(C)c4C)-n4c(C)nnc43)CC2)n1
pIC50 [2]: 6.52

CC[C@H](C)[C@H](NC(=O)C[C@@H]1N=C(c2ccc(Cl)cc2)c2c(sc(C)c2C)-n2c(C)nnc21)C(=O)OCCN1CCN(c2cc(Nc3ncc(C(=O)Nc4c(C)cccc4Cl)s3)nc(C)n2)CC1
pIC50 [1]: < 6.00 | pIC50 [2]: 6.47

Cc1nc(Nc2ncc(C(=O)Nc3c(C)cccc3Cl)s2)cc(N2CCN(CCOC(=O)CCOCCOCCOCCNC(=O)C[C@@H]3N=C(c4ccc(Cl)cc4)c4c(sc(C)c4C)-n4c(C)nnc43)CC2)n1
pIC50 [2]: 6.78

Cc1nc(Nc2ncc(C(=O)Nc3c(C)cccc3Cl)s2)cc(N2CCN(CCOC(=O)[C@@H]3CCCN3C(=O)C[C@@H]3N=C(c4ccc(Cl)cc4)c4c(sc(C)c4C)-n4c(C)nnc43)CC2)n1
pIC50 [2]: 6.87
